The NIST ThermoML archive (doi:10.1021/je060271a)
Numbers after ± are expanded uncertainties.

Settings: 303.15 K, Liquid, Vibrating tube method

CCCCC(=O)OCC(COC(=O)CCCC)(COC(=O)CCCC)COC(=O)CCCC [pentaerythritol tetrapentanoate]
Settings	mass density [kg/m3]
13763 kPa	1019.6 ± 1.2
13796 kPa	1019.5 ± 1.2
13829 kPa	1019.6 ± 1.2
13863 kPa	1019.6 ± 1.2
13902 kPa	1019.7 ± 1.2
13936 kPa	1019.7 ± 1.2
13971 kPa	1019.7 ± 1.2
14011 kPa	1019.6 ± 1.2
14045 kPa	1019.6 ± 1.2
14080 kPa	1019.8 ± 1.2
14120 kPa	1019.8 ± 1.2
14154 kPa	1019.7 ± 1.2
14189 kPa	1019.8 ± 1.2
14231 kPa	1019.8 ± 1.2
14265 kPa	1019.9 ± 1.2
14300 kPa	1019.8 ± 1.2
14344 kPa	1019.8 ± 1.2
14378 kPa	1020 ± 1.2
14414 kPa	1019.9 ± 1.2
14458 kPa	1019.9 ± 1.2
14494 kPa	1020 ± 1.2
14532 kPa	1020 ± 1.2
14574 kPa	1020.1 ± 1.2
14612 kPa	1020.1 ± 1.2
14649 kPa	1020.1 ± 1.2
14687 kPa	1019.9 ± 1.2
14731 kPa	1020.2 ± 1.2
14769 kPa	1020.1 ± 1.2
14808 kPa	1020.2 ± 1.2
14853 kPa	1020.2 ± 1.2
14892 kPa	1020.2 ± 1.2
14933 kPa	1020.3 ± 1.2
14974 kPa	1020.3 ± 1.2
15014 kPa	1020.2 ± 1.2
15058 kPa	1020.3 ± 1.2
15098 kPa	1020.3 ± 1.2
15146 kPa	1020.4 ± 1.2
15187 kPa	1020.4 ± 1.2
15226 kPa	1020.4 ± 1.2
15275 kPa	1020.5 ± 1.2
15316 kPa	1020.3 ± 1.2
15358 kPa	1020.6 ± 1.2
15400 kPa	1020.5 ± 1.2
15450 kPa	1020.5 ± 1.2
15495 kPa	1020.6 ± 1.2
15540 kPa	1020.6 ± 1.2
15586 kPa	1020.7 ± 1.2
15638 kPa	1020.7 ± 1.2
15671 kPa	1020.6 ± 1.2
15699 kPa	1020.6 ± 1.2
15733 kPa	1020.9 ± 1.2
15763 kPa	1020.8 ± 1.2
15791 kPa	1020.7 ± 1.2
15826 kPa	1020.8 ± 1.2
15856 kPa	1020.8 ± 1.2
15887 kPa	1020.7 ± 1.2
15921 kPa	1020.8 ± 1.2
15952 kPa	1020.9 ± 1.2
15981 kPa	1021 ± 1.2
16011 kPa	1020.9 ± 1.2
16047 kPa	1020.9 ± 1.2
16078 kPa	1021.1 ± 1.2
16109 kPa	1021 ± 1.2
16146 kPa	1020.9 ± 1.2
16177 kPa	1021 ± 1.2
16215 kPa	1021 ± 1.2
16248 kPa	1021.1 ± 1.2
16278 kPa	1021 ± 1.2
16303 kPa	1021.1 ± 1.2
16331 kPa	1021.1 ± 1.2
16354 kPa	1021.1 ± 1.2
16378 kPa	1021 ± 1.2
16406 kPa	1021.2 ± 1.2
16430 kPa	1021 ± 1.2
16454 kPa	1021.3 ± 1.2
16479 kPa	1021.2 ± 1.2
16508 kPa	1021.2 ± 1.2
16532 kPa	1021.2 ± 1.2
16556 kPa	1021.2 ± 1.2
16585 kPa	1021.3 ± 1.2
16610 kPa	1021.3 ± 1.2
16633 kPa	1021.2 ± 1.2
16663 kPa	1021.4 ± 1.2
16688 kPa	1021.3 ± 1.2
16712 kPa	1021.3 ± 1.2
16737 kPa	1021.4 ± 1.2
16765 kPa	1021.3 ± 1.2
16791 kPa	1021.4 ± 1.2
16815 kPa	1021.3 ± 1.2
16845 kPa	1021.5 ± 1.2
16869 kPa	1021.5 ± 1.2
16898 kPa	1021.4 ± 1.2
16924 kPa	1021.4 ± 1.2
16949 kPa	1021.4 ± 1.2
16980 kPa	1021.5 ± 1.2
17005 kPa	1021.5 ± 1.2
17032 kPa	1021.6 ± 1.2
17057 kPa	1021.4 ± 1.2
17088 kPa	1021.6 ± 1.2
17112 kPa	1021.6 ± 1.2
17144 kPa	1021.6 ± 1.2
17170 kPa	1021.5 ± 1.2
17196 kPa	1021.7 ± 1.2
17222 kPa	1021.6 ± 1.2
17253 kPa	1021.6 ± 1.2
17279 kPa	1021.5 ± 1.2
17310 kPa	1021.7 ± 1.2
17337 kPa	1021.7 ± 1.2
17364 kPa	1021.7 ± 1.2
17396 kPa	1021.8 ± 1.2
17422 kPa	1021.8 ± 1.2
17449 kPa	1021.8 ± 1.2
17476 kPa	1021.8 ± 1.2
17509 kPa	1021.7 ± 1.2
17535 kPa	1021.7 ± 1.2
17563 kPa	1021.8 ± 1.2
17596 kPa	1021.8 ± 1.2
17623 kPa	1021.8 ± 1.2
17656 kPa	1022 ± 1.2
17684 kPa	1022 ± 1.2
17713 kPa	1021.9 ± 1.2
17742 kPa	1021.9 ± 1.2
17771 kPa	1021.9 ± 1.2
17800 kPa	1021.9 ± 1.2
17834 kPa	1021.9 ± 1.2
17862 kPa	1022 ± 1.2
17892 kPa	1022 ± 1.2
17920 kPa	1022 ± 1.2
17954 kPa	1022.1 ± 1.2
17983 kPa	1022.1 ± 1.2
18012 kPa	1022.1 ± 1.2
18047 kPa	1022.2 ± 1.2
18076 kPa	1022.1 ± 1.2
18105 kPa	1022.1 ± 1.2
18142 kPa	1022.1 ± 1.2
18171 kPa	1022.2 ± 1.2
18200 kPa	1022.2 ± 1.2
18230 kPa	1022.1 ± 1.2
18265 kPa	1022.3 ± 1.2
18295 kPa	1022.3 ± 1.2
18325 kPa	1022.2 ± 1.2
18360 kPa	1022.2 ± 1.2
18390 kPa	1022.2 ± 1.2
18421 kPa	1022.4 ± 1.2
18457 kPa	1022.4 ± 1.2
18488 kPa	1022.2 ± 1.2
18520 kPa	1022.4 ± 1.2
18551 kPa	1022.4 ± 1.2
18587 kPa	1022.4 ± 1.2
18618 kPa	1022.4 ± 1.2
18650 kPa	1022.6 ± 1.2
18687 kPa	1022.5 ± 1.2
18717 kPa	1022.5 ± 1.2
18749 kPa	1022.7 ± 1.2
18787 kPa	1022.6 ± 1.2
18819 kPa	1022.6 ± 1.2
18850 kPa	1022.5 ± 1.2
18887 kPa	1022.5 ± 1.2
18919 kPa	1022.7 ± 1.2
18951 kPa	1022.6 ± 1.2
